{"source": "BindingDB's records for doi:10.1021/jm060732n", "about": "(Mcgill University, 2006)", "experiment": "Inhibition of Enterococcus faecium AAC(6')Ii"}
{"smiles": "CC(C)(COP(=O)(O)OP(=O)(O)OC[C@H]1O[C@@H](n2cnc3c(N)ncnc32)[C@H](O)[C@@H]1OP(=O)(O)O)[C@@H](O)C(=O)NCCC(=O)NCCSCC(=O)NC[C@H]1O[C@H](O[C@H]2[C@H](O)[C@@H](O[C@H]3O[C@H](CO)[C@@H](O)[C@H](N)[C@H]3O)[C@H](N)C[C@@H]2N)[C@H](O)[C@@H](O)[C@@H]1O", "values": [{"measurement": "Ki", "result": 110, "unit": "nM"}]}
{"smiles": "CC(C)(COP(=O)(O)OP(=O)(O)OC[C@H]1O[C@@H](n2cnc3c(N)ncnc32)[C@H](O)[C@@H]1OP(=O)(O)O)[C@@H](O)C(=O)NCCC(=O)NCCSCCCCC(=O)NC[C@H]1O[C@H](O[C@H]2[C@H](O)[C@@H](O)[C@H](N)C[C@@H]2N)[C@H](N)[C@@H](O)[C@@H]1O", "note": "[[(2R,3S,4R,5R)-5-(6-amino-9H-purin-9-yl)-4-hydroxy-3-(phosphonatooxy)oxolan-2-yl]methyl {[(3R)-3-({2-[(2-{[4-({[(2R,3S,4R,5R,6R)-5-amino-6-{[(1R,2R,3S,4R,6S)-4,6-diamino-2,3-dihydroxycyclohexyl]oxy}-3,4-dihydroxyoxan-2-yl]methyl}carbamoyl)butyl]sulfanyl}ethyl)carbamoyl]ethyl}carbamoyl)-3-hydroxy-2,2-dimethylpropylphosphonato]oxy}phosphonate]", "values": [{"measurement": "Ki", "result": 8000, "unit": "nM"}]}
{"smiles": "CC(C)(COP(=O)(O)OP(=O)(O)OC[C@H]1O[C@@H](n2cnc3c(N)ncnc32)[C@H](O)[C@@H]1OP(=O)(O)O)[C@@H](O)C(=O)NCCC(=O)NCCSCC(=O)NC[C@H]1O[C@H](O[C@H]2[C@H](O)[C@@H](O)[C@H](N)C[C@@H]2N)[C@H](N)[C@@H](O)[C@@H]1O", "note": "[[(2R,3S,4R,5R)-5-(6-amino-9H-purin-9-yl)-4-hydroxy-3-(phosphonatooxy)oxolan-2-yl]methyl {[(3R)-3-({2-[(2-{[({[(2R,3S,4R,5R,6R)-5-amino-6-{[(1R,2R,3S,4R,6S)-4,6-diamino-2,3-dihydroxycyclohexyl]oxy}-3,4-dihydroxyoxan-2-yl]methyl}carbamoyl)methyl]sulfanyl}ethyl)carbamoyl]ethyl}carbamoyl)-3-hydroxy-2,2-dimethylpropylphosphonato]oxy}phosphonate]", "values": [{"measurement": "Ki", "result": 76, "unit": "nM"}]}
{"smiles": "CC(C)(COP(=O)(O)OP(=O)(O)OC[C@H]1O[C@@H](n2cnc3c(N)ncnc32)[C@H](O)[C@@H]1OP(=O)(O)O)[C@@H](O)C(=O)NCCC(=O)NCCSCCC(=O)NC[C@H]1O[C@H](O[C@H]2[C@H](O)[C@@H](O)[C@H](N)C[C@@H]2N)[C@H](N)[C@@H](O)[C@@H]1O", "note": "[truncated aminoglycoside-coenzyme A bisubstrate analogue 1b]", "values": [{"measurement": "Ki", "result": 43, "unit": "nM"}]}
{"smiles": "CC(C)(COP(=O)(O)OP(=O)(O)OC[C@H]1O[C@@H](n2cnc3c(N)ncnc32)[C@H](O)[C@@H]1OP(=O)(O)O)[C@@H](O)C(=O)NCCC(=O)NCCSCCCC(=O)NC[C@H]1O[C@H](O[C@H]2[C@H](O)[C@@H](O)[C@H](N)C[C@@H]2N)[C@H](N)[C@@H](O)[C@@H]1O", "note": "[truncated aminoglycoside-coenzyme A bisubstrate analogue 1c]", "values": [{"measurement": "Ki", "result": 161, "unit": "nM"}]}
{"smiles": "CC(C)(COP(=O)(O)OP(=O)(O)OC[C@H]1O[C@@H](n2cnc3c(N)ncnc32)[C@H](O)[C@@H]1OP(=O)(O)O)[C@@H](O)C(=O)NCCC(=O)NCCSCC(=O)NC[C@H]1O[C@H](O[C@H]2[C@H](O)[C@@H](O[C@H]3O[C@H](CO)[C@@H](O)[C@H](O)[C@H]3O[C@@H]3O[C@H](CO)[C@@H](O)[C@H]3O)[C@H](N)C[C@@H]2N)[C@H](N)[C@@H](O)[C@@H]1O", "note": "[truncated aminoglycoside-coenzyme A bisubstrate analogue 3]", "values": [{"measurement": "Ki", "result": 119, "unit": "nM"}]}
